# Results: ChEMBL document CHEMBL1201862, “PubChem BioAssay data set” (2004)
# Activity calls are given as the source filed them. Unless noted, no cut-off for these calls is given here.
# Tests used:
# Beta Lactamase = Beta Lactamase (Pseudomonas aeruginosa, UniProt Q932Y6); test: beta-lactamase reporter inhibitor potency, dose response, artefact control for TLR9-MyD88 binding inhibitor project, BLA reporter cells, FRET fluorescence (AID 588341); assay type: cell-based;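 note: cell based assay in CHO-K1 cells stably expressing beta-lactamase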
# Sequence of Beta Lactamase (Q932Y6 whole entry, the tested form may be a part): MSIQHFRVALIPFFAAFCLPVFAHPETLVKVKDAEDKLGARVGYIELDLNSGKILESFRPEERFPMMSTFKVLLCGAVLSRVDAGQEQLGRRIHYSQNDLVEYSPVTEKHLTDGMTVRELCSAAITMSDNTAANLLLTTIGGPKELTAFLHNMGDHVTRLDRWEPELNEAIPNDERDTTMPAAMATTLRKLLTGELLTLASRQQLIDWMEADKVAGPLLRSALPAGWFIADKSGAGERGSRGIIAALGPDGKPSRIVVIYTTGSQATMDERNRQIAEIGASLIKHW
# CHO = test: cytotoxicity in TLR9-MyD88 CHO cells, dose response, cytotoxicity control for TLR9-MyD88 binding inhibitor project, cell-based, luminescence (AID 588339); assay type: functional, hamster; conditions: Cricetulus griseus;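 note: CHO cells stably coexpressing TLR9 and MyD88 fusions from primary screen; compound exposure lasted 48 hours before viability readout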
# Apelin receptor = Apelin receptor (Homo sapiens, UniProt P35414); test: APJ beta-arrestin recruitment antagonism, SAR follow-up, selectivity assay for CCR6 antagonist project, cell-based, luminescent, enzyme-fragment complementation (AID 588359); assay type: functional
# Sequence of Apelin receptor (P35414 whole entry, the tested form may be a part): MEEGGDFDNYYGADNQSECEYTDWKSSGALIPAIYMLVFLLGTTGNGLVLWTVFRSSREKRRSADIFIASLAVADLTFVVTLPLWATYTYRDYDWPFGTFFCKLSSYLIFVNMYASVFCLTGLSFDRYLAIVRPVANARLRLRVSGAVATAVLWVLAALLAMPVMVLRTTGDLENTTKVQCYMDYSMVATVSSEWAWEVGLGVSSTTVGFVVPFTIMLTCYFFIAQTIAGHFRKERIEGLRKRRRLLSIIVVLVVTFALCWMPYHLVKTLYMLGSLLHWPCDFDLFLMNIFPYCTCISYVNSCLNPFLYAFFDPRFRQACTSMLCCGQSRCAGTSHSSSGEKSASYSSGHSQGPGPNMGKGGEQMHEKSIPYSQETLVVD
# [1] = target: C-X-C chemokine receptor type 5 (Homo sapiens, UniProt P32302); test: CXCR5 receptor antagonists, SAR follow-up, selectivity assay for CCR6 antagonist project, cell-based, beta-arrestin, luminescence, CHO-K1 PathHunter (AID 540340); assay type: functional
# Sequence of C-X-C chemokine receptor type 5 (P32302 whole entry): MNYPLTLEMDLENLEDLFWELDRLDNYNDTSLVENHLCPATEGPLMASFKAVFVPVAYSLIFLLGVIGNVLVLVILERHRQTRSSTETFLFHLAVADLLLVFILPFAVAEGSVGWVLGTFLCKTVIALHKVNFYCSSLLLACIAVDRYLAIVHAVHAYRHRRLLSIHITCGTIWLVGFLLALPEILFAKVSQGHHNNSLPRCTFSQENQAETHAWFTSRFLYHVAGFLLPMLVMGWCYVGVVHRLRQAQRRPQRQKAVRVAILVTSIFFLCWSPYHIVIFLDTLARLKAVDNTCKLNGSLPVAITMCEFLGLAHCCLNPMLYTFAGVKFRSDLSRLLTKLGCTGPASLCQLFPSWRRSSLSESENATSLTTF
# [2] = target: T1, C-C chemokine receptor type 6 (Homo sapiens, UniProt P51684); test: CCR6 receptor antagonists, SAR follow-up, cell-based, luminescent beta-arrestin readout (AID 540334); assay type: functional
# T1 sequence (P51684 whole entry): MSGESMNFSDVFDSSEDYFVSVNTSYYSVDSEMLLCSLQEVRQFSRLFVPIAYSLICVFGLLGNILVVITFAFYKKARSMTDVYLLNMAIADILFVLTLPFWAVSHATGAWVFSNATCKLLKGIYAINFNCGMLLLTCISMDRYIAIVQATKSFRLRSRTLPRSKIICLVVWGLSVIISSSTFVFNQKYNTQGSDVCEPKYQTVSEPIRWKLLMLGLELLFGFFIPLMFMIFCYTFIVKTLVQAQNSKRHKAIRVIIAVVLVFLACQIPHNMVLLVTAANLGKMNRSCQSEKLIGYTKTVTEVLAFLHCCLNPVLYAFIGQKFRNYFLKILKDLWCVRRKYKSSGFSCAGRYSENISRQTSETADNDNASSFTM
# MDCK [3] = test: antiviral activity against H1N1 influenza, dose response, cell-based, strain KY136 (AID 540257); assay type: functional; conditions: Canis lupus familiaris
# MDCK [4] = test: MDCK cell cytotoxicity, dose response, cytotoxicity control (AID 540296); assay type: functional; conditions: Canis lupus familiaris
# Nonstructural protein 1 = Nonstructural protein 1 (Influenza A virus, UniProt Q194T2); assay type: functional, Influenza A virus (A/California/07/2009(H1N1))
# Sequence of Nonstructural protein 1 (Q194T2 whole entry): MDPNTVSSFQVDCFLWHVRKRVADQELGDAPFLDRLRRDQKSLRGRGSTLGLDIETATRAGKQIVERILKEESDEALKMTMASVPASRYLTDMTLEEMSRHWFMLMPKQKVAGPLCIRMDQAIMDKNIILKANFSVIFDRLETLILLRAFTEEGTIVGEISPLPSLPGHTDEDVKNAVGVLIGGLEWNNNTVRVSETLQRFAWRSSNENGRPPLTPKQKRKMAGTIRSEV
# Vero = test: Vero E6 cell cytotoxicity, dose response, cytotoxicity control (AID 540298); assay type: functional; conditions: Chlorocebus sabaeus
# [5] = THP-1 cell cytotoxicity, dose response, cytotoxicity control, set 3 (AID 504852); assay type: functional; conditions: Mycobacterium tuberculosis
# HEK293 [6] = test: optical interference in Abeta FP readout, dose response, artefact control for IDE activator project, biochemical, fluorescence polarization (AID 588442); assay type: functional, cell-based; conditions: Homo sapiens
# Insulin-degrading enzyme [7] = target: T2, Insulin-degrading enzyme (Homo sapiens, UniProt P14735); test: activators of endogenous IDE in HEK cells, dose response, cell-based, fluorescence polarization (AID 588439); assay type: functional
# T2 sequence (P14735 whole entry): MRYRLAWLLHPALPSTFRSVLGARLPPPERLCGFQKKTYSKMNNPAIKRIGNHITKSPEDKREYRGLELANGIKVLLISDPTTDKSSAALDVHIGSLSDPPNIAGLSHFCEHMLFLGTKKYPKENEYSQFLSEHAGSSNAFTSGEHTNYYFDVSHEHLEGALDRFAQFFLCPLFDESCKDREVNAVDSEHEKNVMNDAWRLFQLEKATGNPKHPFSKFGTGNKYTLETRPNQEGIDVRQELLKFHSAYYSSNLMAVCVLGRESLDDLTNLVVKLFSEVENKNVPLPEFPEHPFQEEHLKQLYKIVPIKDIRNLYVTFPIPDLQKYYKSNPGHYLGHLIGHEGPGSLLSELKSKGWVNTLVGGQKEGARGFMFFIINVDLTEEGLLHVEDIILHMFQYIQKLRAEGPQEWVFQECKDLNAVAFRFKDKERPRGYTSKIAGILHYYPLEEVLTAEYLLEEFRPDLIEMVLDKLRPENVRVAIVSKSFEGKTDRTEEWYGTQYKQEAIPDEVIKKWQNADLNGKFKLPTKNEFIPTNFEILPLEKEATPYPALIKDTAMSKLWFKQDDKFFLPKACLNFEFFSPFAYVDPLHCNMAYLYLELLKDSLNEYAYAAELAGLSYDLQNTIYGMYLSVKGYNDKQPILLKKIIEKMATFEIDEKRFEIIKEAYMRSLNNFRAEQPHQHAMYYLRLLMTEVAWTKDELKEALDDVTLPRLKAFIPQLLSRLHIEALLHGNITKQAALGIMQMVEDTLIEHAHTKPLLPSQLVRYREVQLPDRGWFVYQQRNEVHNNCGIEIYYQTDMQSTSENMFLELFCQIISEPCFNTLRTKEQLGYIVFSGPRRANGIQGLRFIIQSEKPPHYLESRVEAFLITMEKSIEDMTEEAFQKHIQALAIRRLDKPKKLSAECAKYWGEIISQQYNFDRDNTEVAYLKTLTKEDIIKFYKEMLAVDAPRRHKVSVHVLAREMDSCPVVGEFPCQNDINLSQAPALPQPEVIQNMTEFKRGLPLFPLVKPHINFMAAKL
# [8] = target: FAD-linked sulfhydryl oxidase ALR (Homo sapiens, UniProt P55789); test: inhibitors of human ALR sulfhydryl oxidase, dose response, biochemical, H2O2 detection, luminescence, cherry-pick (AID 493248)
# Sequence of FAD-linked sulfhydryl oxidase ALR (P55789 whole entry): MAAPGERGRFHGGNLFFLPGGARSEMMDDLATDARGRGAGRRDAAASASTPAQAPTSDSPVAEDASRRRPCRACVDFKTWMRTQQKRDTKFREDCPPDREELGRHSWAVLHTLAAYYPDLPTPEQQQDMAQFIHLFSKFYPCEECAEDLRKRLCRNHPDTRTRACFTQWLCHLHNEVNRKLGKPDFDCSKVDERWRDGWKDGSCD
# Insulin-degrading enzyme [9] = target: T2, Insulin-degrading enzyme; test: activators of recombinant IDE enzyme, dose response, counter-screen for IDE activator project, biochemical, fluorescence polarization (AID 588681)
# HEK293 [10] = test: HEK cell cytotoxicity by LDH release, dose response, cytotoxicity control for IDE activator project, fluorescence, HEK cells (AID 588440); assay type: functional, cell-based; conditions: Homo sapiens;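 note: cytotoxicity by LDH release measuring loss of membrane integrity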
# [11] = CEM21 lymphoblast cell cytotoxicity, dose response, cytotoxicity control for viral fusion inhibitor project, CellTiter-Glo luminescence, cherry-picked (AID 652042); assay type: functional, cell-based;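 note: potency for signal decrease meaning cytotoxicity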
# [12] = cytotoxicity in HEK-293T cells, dose response, cytotoxicity control for TCR NF-kB inhibitor project, luminescence, T-cell screen hits (AID 489026); assay type: functional, cell-based;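 note: cells exposed to compound about 14 hours before the viability readout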
# [13] = reduction of Shn3 3'UTR firefly luciferase signal, dose response, Schnurri-3 inhibitor project, cell-based, Clone20 osteoblasts, cherry-pick, set 2 (AID 720490); assay type: functional;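 note: actives lower the luminescence signal as inhibitors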
# [14] = ZM109 Env clade C HIV-1 fusion inhibitors, dose response, HeLa effector, CEM target cells, luciferase, cherry-pick (AID 652058); assay type: functional, cell-based
# H4 [15] = test: inhibitors of control reporter signal in H4 cells – cell-based, plate reader, dry powder samples, counter-screen for prion reporter project, dose response (AID 540255); assay type: functional; conditions: Homo sapiens
# H4 [16] = test: Amyloid Precursor 5' UTR neuroblastoma cell reporter line Measured in Cell-Based System Using Plate Reader - 2078-04_Inhibitor_Dose_DryPowder_Activity. [Related pubchem assays (depositor defined):AID488894]; assay type: functional; conditions: Homo sapiens
# [17] = target: T3, Heat shock factor protein 1 (Mus musculus, UniProt P38532); test: inhibition of MG132-induced HSE-luciferase signal, confirmation, cell-based, NIH3T3, luminescence, dose retest (AID 2382); assay type: functional;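 note: NIH3T3 fibroblasts with HSF1-driven luciferase reporter stressed by proteasome inhibitor MG132; luminescence from HSF1-driven luciferase expression after 8 hours of MG132 stress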
# T3 sequence (P38532 whole entry): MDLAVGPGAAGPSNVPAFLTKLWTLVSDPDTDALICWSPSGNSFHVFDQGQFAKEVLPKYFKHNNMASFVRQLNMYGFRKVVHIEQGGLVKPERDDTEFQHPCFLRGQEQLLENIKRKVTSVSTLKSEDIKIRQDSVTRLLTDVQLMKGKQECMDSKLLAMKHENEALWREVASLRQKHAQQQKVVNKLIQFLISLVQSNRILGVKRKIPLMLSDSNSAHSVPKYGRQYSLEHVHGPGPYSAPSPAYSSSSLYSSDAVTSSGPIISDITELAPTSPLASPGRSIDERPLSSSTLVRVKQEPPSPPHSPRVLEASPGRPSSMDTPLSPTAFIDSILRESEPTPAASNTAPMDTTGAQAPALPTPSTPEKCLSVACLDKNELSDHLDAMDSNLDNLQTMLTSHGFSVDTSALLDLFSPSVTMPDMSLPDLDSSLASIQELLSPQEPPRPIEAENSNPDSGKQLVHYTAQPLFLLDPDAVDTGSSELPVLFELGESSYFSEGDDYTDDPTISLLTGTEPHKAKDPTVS
# [18] = A549 cell cytotoxicity, dose response, cytotoxicity control, plate reader, cherry-pick, antagonist series (AID 743412); assay type: functional, cell-based
# [19] = HepG2 cell cytotoxicity, dose response, cytotoxicity control, plate reader, cherry-pick, antagonist series (AID 743416); assay type: functional, cell-based
# [20] = inhibitors of HIV Env-driven cell fusion, dose response, cherry-pick (AID 652057); assay type: functional, cell-based
# [21] = Luminescence Cell-Based Dose Confirmation HTS to Identify Inhibitors of Platelet Dense Granule Release. [Related pubchem assays: 1663 (Primary HTS), 1678 (Summary of Project)]; assay type: functional
# [22] = Shn3 3'UTR reporter inhibitors, dose response, cell-based, Clone20 osteoblasts, firefly luciferase, cherry-picked (AID 624132); assay type: functional;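 note: firefly luciferase luminescence from reporter carrying the Shn3 3'UTR in osteoblasts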
# [23] = inhibitors of clade B AD8 Env fusion, dose response, cell-based, cherry-pick (AID 652062); assay type: functional;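 note: luciferase signal from cell-cell fusion driven by HIV-1 clade B AD8 Env; potency is for inhibitors of fusion seen as a drop in luminescence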
# [24] = HepG2 cell cytotoxicity, dose response, cytotoxicity control for Shn3 inhibitor project, CellTiter-Glo, cherry-picked (AID 624134); assay type: functional, cell-based
# [25] = MC4R antagonists, dose response, counter-screen for LGR2 antagonist project, cell-based, plate reader, cherry pick (AID 743444); assay type: functional;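 note: transfected HEK 293 cells stimulated with alpha-MSH peptide; potency of inhibitors of the alpha-MSH evoked signal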
# [26] = inhibitors of firefly luciferase expression or activity, dose response, H4 neuroglioma cells, luminescence (AID 1990); assay type: functional, cell-based
# [27] = LGR2 antagonists, dose response, cell-based, HEK293, CRE-luciferase reporter, cherry pick, set 2 (AID 743343); assay type: functional;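 note: transfected cells were stimulated with diluted bursicon conditioned medium after compound addition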
# [28] = off-target signal loss in HeLa-CEM21 co-culture – HeLa F-luc CTL cells, cherry-picked, counter-screen for HIV-1 Env fusion inhibitor project, dose response (AID 652040); assay type: functional, cell-based;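 note: potency for signal decrease marking cytotoxic or nonspecific inhibition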
# [29] = target: T4, Luciferin 4-monooxygenase (Photinus pyralis, UniProt P08659); test: firefly luciferase enzyme inhibitors, dose response, biochemical, dry powder samples, plate reader (AID 588451)
# T4 sequence (P08659 whole entry): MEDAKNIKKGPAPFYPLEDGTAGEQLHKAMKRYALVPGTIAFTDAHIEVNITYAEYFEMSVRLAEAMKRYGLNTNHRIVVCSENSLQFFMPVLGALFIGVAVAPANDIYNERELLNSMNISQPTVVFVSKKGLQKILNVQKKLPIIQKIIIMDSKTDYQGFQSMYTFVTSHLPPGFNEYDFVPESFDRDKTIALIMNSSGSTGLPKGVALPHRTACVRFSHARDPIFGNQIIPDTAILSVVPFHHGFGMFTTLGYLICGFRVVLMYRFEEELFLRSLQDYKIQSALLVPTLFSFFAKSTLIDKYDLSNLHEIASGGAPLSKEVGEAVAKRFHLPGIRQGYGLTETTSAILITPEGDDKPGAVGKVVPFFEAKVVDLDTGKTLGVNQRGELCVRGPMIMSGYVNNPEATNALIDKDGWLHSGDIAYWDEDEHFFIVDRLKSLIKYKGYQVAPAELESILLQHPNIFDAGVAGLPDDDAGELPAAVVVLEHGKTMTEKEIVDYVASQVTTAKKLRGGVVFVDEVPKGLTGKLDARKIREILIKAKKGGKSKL
# H4 [30] = test: Inhibitors of Prion Protein 5' UTR mRNA Measured in Cell-Based System Using Plate Reader - 2078-01_Inhibitor_Dose_DryPowder_Activity. [Related pubchem assays (depositor defined):AID488894]; assay type: functional; conditions: Homo sapiens
# [31] = HEK293 cell cytotoxicity, dose response, cytotoxicity control, plate reader, cherry-picked samples (AID 743446); assay type: functional, cell-based
# [32] = inhibitors of SNCA 5'UTR-driven reporter translation, confirmation, H4 neuroglioma cells, luminescence (AID 1988); assay type: functional, cell-based
# [33] = Luminescence Cell-Based Dose Response HTS to Identify Inhibitors of 5'UTR Stem-Loop Driven Prion Protein mRNA Translation in H4 Neuroglioblastoma Cells. [Related pubchem assays: 1827 (Project Summary), 1813 (Primary HTS)]; assay type: functional
# [34] = target: T4, Luciferin 4-monooxygenase; test: firefly luciferase enzyme inhibitors, dose response, biochemical, luminescence (AID 1891)
compound,measurement,setting,value
Cc1nn(C)c(C)c1N1C(=O)c2cccc3c(Br)ccc(c23)C1=O,IC50,Beta Lactamase,5.72 µM (active)
same,IC50,CHO,7.3 µM (active)
C/C=C(\C)C(=O)OC1[C@H](OC(C)=O)C2(CO)C(CC1(C)C)C1=CCC3C4(C)CCC(O[C@@H]5O[C@H](C(=O)O)[C@@H](O[C@@H]6O[C@H](CO)[C@@H](O)[C@H](O)[C@H]6O)[C@H](O)[C@H]5O[C@H]5O[C@H](CO)[C@@H](O)[C@H](O)[C@H]5O)[C@](C)(CO)C4CCC3(C)[C@]1(C)C[C@H]2O (some centres undefined),IC50,Apelin receptor,9.07 µM (active)
same,IC50,[1],9.46 µM (inactive)
same,IC50,[2],7.82 µM (active)
CCc1ccccc1NC(=O)CSc1nc2nnc(C)c-2c(N)n1-c1cccc(OC)c1,IC50,MDCK [3],7.75 µM (active)
same,CC50,MDCK [4],35.7 µM (active)
same,IC50,Nonstructural protein 1,> 100 µM (active)
same,CC50,Vero,24.4 µM (active)
CCOC1OC(=O)C(Cl)=C1Nc1ccccc1C (centres undefined),CC50,[5],> 100 µM (active)
COc1cccc(CNc2ccc3c(c2)ncn3C(C)C)c1OC,EC50,HEK293 [6],> 55.9 µM (inactive)
same,EC50,Insulin-degrading enzyme [7],43.8 µM (inactive)
same,AC50,[8],2.58 µM (active)
same,EC50,Insulin-degrading enzyme [9],> 54.7 µM (inactive)
same,IC50,HEK293 [10],> 89.2 µM (inactive)
Cc1c(C)c2ccc(OCC(=O)Nc3ccccn3)c(C)c2oc1=O,AC50,[11],35 µM (active)
same,IC50,[12],> 80 µM (inactive)
same,AC50,[13],1.77 µM (active)
same,AC50,[14],6.61 µM (active)
same,AC50,H4 [15],21 nM (active)
same,AC50,H4 [16],10.3 nM (active)
same,EC50,[17],< 160 nM (active)
same,AC50,[18],33.5 µM (active)
same,AC50,[19],25.3 µM (active)
same,AC50,[20],1.71 µM (active)
same,EC50,[21],2.73 µM (active)
same,AC50,[22],416 nM (active)
same,AC50,[23],429 nM (active)
same,AC50,[24],37.1 µM (active)
same,AC50,[25],< 68 nM (active)
same,EC50,[26],360 nM (active)
same,AC50,[27],80.2 nM (active)
same,AC50,[28],1.83 µM (active)
same,AC50,[29],101 nM (active)
same,AC50,H4 [30],27 nM (active)
same,AC50,[31],48.7 µM (active)
same,EC50,[32],236 nM (active)
same,EC50,[33],214 nM (active)
same,EC50,[34],629 nM (active)
